Data from paper PMC9154192 (PLoS Biology, 2022).
Like-named read-outs stand apart in the source and are kept apart here.

Format: in vivo, SD rats
Conditions: for Adrenal gland: Vacuolation, cortical, diffuse, Grade 1, no. of animals / Adrenal gland: Vacuolation, cortical, diffuse, Grade 2, no. of animals / Epididymis: Infiltrate, inflammatory cell, interstitum, Grade 1, no. of animals / Eye: Dysplasia, retina, focal, Grade 1, no. of animals / Harderian gland: Infiltrate, inflammatory cell, focal, Grade 1, no. of animals / Kidney: Basophilia, tubule, cortex, Grade 1, no. of animals / Kidney: Cast, hyaline, cortex, Grade 1, no. of animals / Kidney: Hydronephrosis, unilateral, Grade 3, no. of animals / Kidney: Infiltrate, inflammatory cell, interstitium, Grade 1, no. of animals / Kidney: Infiltrate, inflammatory cell, interstitium, Grade 2, no. of animals / Kidney: Mineralization, cortex, Grade 1, no. of animals / Kidney: Mineralization, corticomedullary junction, Grade 1, no. of animals / Kidney: Mineralization, medulla, Grade 1, no. of animals / Liver: Extramedullary hematopoiesis, Grade 1, no. of animals / Liver: Fatty change, sporadic/periportal, Grade 1, no. of animals / Liver: Fatty change, sporadic/periportal, Grade 2, no. of animals / Liver: Infiltrate, mononuclear cell, focal, Grade 1, no. of animals / Liver: Infiltrate, mononuclear cell, focal, Grade 2, no. of animals / Lung including bronchi: Alveolar macrophage aggregation, focal, Grade 1, no. of animals / Lung including bronchi: Infiltrate, mononuclear cell, alveolar, focal, Grade 1, no. of animals / Pituitary gland: Cyst, pars nervosa, Presence, no. of animals / Prostate: Infiltrate, inflammatory cell, interstitium, Grade 1, no. of animals / Salivary gland (parotid): Focus, hypertrophic, basophilic, focal, Grade 1, no. of animals / Spleen: Pigmentation, Grade 1, no. of animals / Submandibular lymph node: Increased, plasma cell, Grade 2, no. of animals / Thyroid gland: Ectopic thymus, Presence, no. of animals / Thyroid gland: Ultimobranchial cyst, Presence, no. of animals: female
Procedure: A subchronic toxicity study was performed for PP2S. Female and male rats were divided into a control group (0 mg/kg/day, n = 15), a low-dose group (167 mg/kg/day, n = 10), a medium-dose group (500 mg/kg/day, n = 10), and a high-dose group (1,500 mg/kg/day, n = 15), respectively. Thus, there were a total of 8 groups. The drug was administered by oral gavage at 10 mL/kg body weight daily for 4 weeks. Five animals each in the control and high-dose groups continued their treatments for 2 more weeks. Clinical symptoms were observed, and body weight was measured during the test period for a total of 6 weeks; 0.5% methyl cellulose 1,500 cP (Sigma, USA) in water for injection (JW Pharmaceutical, Korea) was used as a vehicle. Control animals were treated with only the same volume of the vehicle.
Histopathological examination was performed while performing a 4-week repeated oral toxicity study for PP2S. Organs and tissues from all animals subjected to autopsy were removed and fixed in 10% neutral buffered formalin. Among them, testes, eyeballs and optic nerve were fixed in Davidson's fixative and then in 10% neutral buffered formalin. For organs/tissues subjected to histopathological examination, specimens were prepared according to the histopathological specimen preparation SOP. For histopathological examination, organs and tissues of all subjects in the control group and the high-dose group, and macroscopically observed subjects in the low-dose group were examined. […] In addition, all other changes observed in histopathological examination were judged to be spontaneous or accidental. Those not specifically observed for all groups by organ were marked with a 'dash' symbol. Grade 1, minimal; Grade 2, slight; Grade 3, moderate; Grade 4, severe.

[1] = all groups (167, 500, 1,500 mg/kg; male, female; dosing and recovery period)
[2] = G2 167 mg/kg, dosing period, n=10
[3] = G3 500 mg/kg, dosing period, n=10
[4] = G4 1,500 mg/kg, dosing period, n=10
[5] = G4 1,500 mg/kg, recovery period, n=5

## CCCCOc1ccc2cc(CN3C(=O)CC[C@H]3C(=O)OC)c3cc(OC)c(OC)cc3c2c1 [PP2S, Methyl (S)-1-((3-butoxy-6,7-dimethoxyphenanthren-9-yl)methyl)-5-oxopyrrolidine-2-carboxylate]
All administration groups, 4-week repeated oral toxicity study
  histopathological change due to administration: no change was observed
[1]
  Histopathological findings: Brain: -
  Histopathological findings: Cecum: -
  Histopathological findings: Colon: -
  Histopathological findings: Duodenum: -
  Histopathological findings: Exophagus: -
  Histopathological findings: Femur including bone marrow: -
  Histopathological findings: Heart: -
  Histopathological findings: Ileum: -
  Histopathological findings: Jejunum: -
  Histopathological findings: Mammary gland (inguinal): -
  Histopathological findings: Mesenteric lymph node: -
  Histopathological findings: Optic nerve: -
  Histopathological findings: Pancreas: -
  Histopathological findings: Parathyroid gland: -
  Histopathological findings: Rectum: -
  Histopathological findings: Salivary gland (sublingual): -
  Histopathological findings: Salivary gland (submandibular): -
  Histopathological findings: Seminal vesicle: -
  Histopathological findings: Skin (inguinal): -
  Histopathological findings: Spinal cord (thoracic): -
  Histopathological findings: Sternum including bone marrow: -
  Histopathological findings: Stomach: -
  Histopathological findings: Testis: -
  Histopathological findings: Thymus: -
  Histopathological findings: Tongue: -
  Histopathological findings: Trachea: -
  Histopathological findings: Urinary bladder: -
  Histopathological findings: Uterus: -
  Histopathological findings: Vagina: -
[2]
  Adrenal gland: Vacuolation, cortical, diffuse, Grade 1, no. of animals: 0
  Adrenal gland: Vacuolation, cortical, diffuse, Grade 2, no. of animals: 0
  Epididymis: Infiltrate, inflammatory cell, interstitum, Grade 1, no. of animals: 0
  Eye: Dysplasia, retina, focal, Grade 1, no. of animals: 0
  Harderian gland: Infiltrate, inflammatory cell, focal, Grade 1, no. of animals: 0
  Kidney: Basophilia, tubule, cortex, Grade 1, no. of animals: 0
  Kidney: Cast, hyaline, cortex, Grade 1, no. of animals: 0
  Kidney: Hydronephrosis, unilateral, Grade 3, no. of animals: 0
  Kidney: Infiltrate, inflammatory cell, interstitium, Grade 1, no. of animals: 0
  Kidney: Infiltrate, inflammatory cell, interstitium, Grade 2, no. of animals: 0
  Kidney: Mineralization, cortex, Grade 1, no. of animals: 0
  Kidney: Mineralization, corticomedullary junction, Grade 1, no. of animals: 0
  Kidney: Mineralization, medulla, Grade 1, no. of animals: 0
  Liver: Extramedullary hematopoiesis, Grade 1, no. of animals: 0
  Liver: Fatty change, sporadic/periportal, Grade 1, no. of animals: 0
  Liver: Fatty change, sporadic/periportal, Grade 2, no. of animals: 0
  Liver: Infiltrate, mononuclear cell, focal, Grade 1, no. of animals: 0
  Liver: Infiltrate, mononuclear cell, focal, Grade 2, no. of animals: 0
  Lung including bronchi: Alveolar macrophage aggregation, focal, Grade 1, no. of animals: 0
  Lung including bronchi: Infiltrate, mononuclear cell, alveolar, focal, Grade 1, no. of animals: 0
  Pituitary gland: Cyst, pars nervosa, Presence, no. of animals: 0
  Prostate: Infiltrate, inflammatory cell, interstitium, Grade 1, no. of animals: 0
  Salivary gland (parotid): Focus, hypertrophic, basophilic, focal, Grade 1, no. of animals: 0
  Spleen: Pigmentation, Grade 1, no. of animals: 0
  Submandibular lymph node: Increased, plasma cell, Grade 2, no. of animals: 0
  Thyroid gland: Ectopic thymus, Presence, no. of animals: 0
  Thyroid gland: Ultimobranchial cyst, Presence, no. of animals: 0
[3]
  Adrenal gland: Vacuolation, cortical, diffuse, Grade 1, no. of animals: 0
  Adrenal gland: Vacuolation, cortical, diffuse, Grade 2, no. of animals: 0
  Epididymis: Infiltrate, inflammatory cell, interstitum, Grade 1, no. of animals: 0
  Eye: Dysplasia, retina, focal, Grade 1, no. of animals: 0
  Harderian gland: Infiltrate, inflammatory cell, focal, Grade 1, no. of animals: 0
  Kidney: Basophilia, tubule, cortex, Grade 1, no. of animals: 0
  Kidney: Cast, hyaline, cortex, Grade 1, no. of animals: 0
  Kidney: Hydronephrosis, unilateral, Grade 3, no. of animals: 0
  Kidney: Infiltrate, inflammatory cell, interstitium, Grade 1, no. of animals: 0
  Kidney: Infiltrate, inflammatory cell, interstitium, Grade 2, no. of animals: 0
  Kidney: Mineralization, cortex, Grade 1, no. of animals: 0
  Kidney: Mineralization, corticomedullary junction, Grade 1, no. of animals: 0
  Kidney: Mineralization, medulla, Grade 1, no. of animals: 0
  Liver: Extramedullary hematopoiesis, Grade 1, no. of animals: 0
  Liver: Fatty change, sporadic/periportal, Grade 1, no. of animals: 0
  Liver: Fatty change, sporadic/periportal, Grade 2, no. of animals: 0
  Liver: Infiltrate, mononuclear cell, focal, Grade 1, no. of animals: 0
  Liver: Infiltrate, mononuclear cell, focal, Grade 2, no. of animals: 0
  Lung including bronchi: Alveolar macrophage aggregation, focal, Grade 1, no. of animals: 0
  Lung including bronchi: Infiltrate, mononuclear cell, alveolar, focal, Grade 1, no. of animals: 0
  Pituitary gland: Cyst, pars nervosa, Presence, no. of animals: 0
  Prostate: Infiltrate, inflammatory cell, interstitium, Grade 1, no. of animals: 0
  Salivary gland (parotid): Focus, hypertrophic, basophilic, focal, Grade 1, no. of animals: 0
  Spleen: Pigmentation, Grade 1, no. of animals: 0
  Submandibular lymph node: Increased, plasma cell, Grade 2, no. of animals: 0
  Thyroid gland: Ectopic thymus, Presence, no. of animals: 0
  Thyroid gland: Ultimobranchial cyst, Presence, no. of animals: 0
[4]
  Adrenal gland: Vacuolation, cortical, diffuse, Grade 1, no. of animals: 0
  Adrenal gland: Vacuolation, cortical, diffuse, Grade 2, no. of animals: 0
  Epididymis: Infiltrate, inflammatory cell, interstitum, Grade 1, no. of animals: 0
  Eye: Dysplasia, retina, focal, Grade 1, no. of animals: 1
  Harderian gland: Infiltrate, inflammatory cell, focal, Grade 1, no. of animals: 0
  Kidney: Basophilia, tubule, cortex, Grade 1, no. of animals: 1
  Kidney: Cast, hyaline, cortex, Grade 1, no. of animals: 0
  Kidney: Hydronephrosis, unilateral, Grade 3, no. of animals: 1
  Kidney: Infiltrate, inflammatory cell, interstitium, Grade 1, no. of animals: 4
  Kidney: Infiltrate, inflammatory cell, interstitium, Grade 2, no. of animals: 0
  Kidney: Mineralization, cortex, Grade 1, no. of animals: 0
  Kidney: Mineralization, corticomedullary junction, Grade 1, no. of animals: 1
  Kidney: Mineralization, medulla, Grade 1, no. of animals: 0
  Liver: Extramedullary hematopoiesis, Grade 1, no. of animals: 0
  Liver: Fatty change, sporadic/periportal, Grade 1, no. of animals: 5
  Liver: Fatty change, sporadic/periportal, Grade 2, no. of animals: 1
  Liver: Infiltrate, mononuclear cell, focal, Grade 1, no. of animals: 2
  Liver: Infiltrate, mononuclear cell, focal, Grade 2, no. of animals: 2
  Lung including bronchi: Alveolar macrophage aggregation, focal, Grade 1, no. of animals: 0
  Lung including bronchi: Infiltrate, mononuclear cell, alveolar, focal, Grade 1, no. of animals: 0
  Pituitary gland: Cyst, pars nervosa, Presence, no. of animals: 0
  Prostate: Infiltrate, inflammatory cell, interstitium, Grade 1, no. of animals: 0
  Salivary gland (parotid): Focus, hypertrophic, basophilic, focal, Grade 1, no. of animals: 1
  Spleen: Pigmentation, Grade 1, no. of animals: 4
  Submandibular lymph node: Increased, plasma cell, Grade 2, no. of animals: 0
  Thyroid gland: Ectopic thymus, Presence, no. of animals: 2
  Thyroid gland: Ultimobranchial cyst, Presence, no. of animals: 4
[5]
  Adrenal gland: Vacuolation, cortical, diffuse, Grade 1, no. of animals: 0
  Adrenal gland: Vacuolation, cortical, diffuse, Grade 2, no. of animals: 0
  Epididymis: Infiltrate, inflammatory cell, interstitum, Grade 1, no. of animals: 0
  Eye: Dysplasia, retina, focal, Grade 1, no. of animals: 0
  Harderian gland: Infiltrate, inflammatory cell, focal, Grade 1, no. of animals: 0
  Kidney: Basophilia, tubule, cortex, Grade 1, no. of animals: 0
  Kidney: Cast, hyaline, cortex, Grade 1, no. of animals: 0
  Kidney: Hydronephrosis, unilateral, Grade 3, no. of animals: 0
  Kidney: Infiltrate, inflammatory cell, interstitium, Grade 1, no. of animals: 3
  Kidney: Infiltrate, inflammatory cell, interstitium, Grade 2, no. of animals: 0
  Kidney: Mineralization, cortex, Grade 1, no. of animals: 0
  Kidney: Mineralization, corticomedullary junction, Grade 1, no. of animals: 0
